From PMC4738305, “Metabolism and Disposition of Aditoprim in Swine, Broilers, Carp and Rats” (Scientific Reports, 2016)
Values joined by “and” are separate entries in the source; they are usually repeats but may differ in a detail not shown here. Equal values may be shown once.

Assay: Tissue distribution and elimination of total radioactivity (total residues) after oral ^3H-ADP for 7 d
Assay type: in vivo, carp
Set-up: Ke of total residues: unit not given here
Method: (0.1 Ci/g) through oral gavage for 7 consecutive days. All the animals were housed on the basis of their group in the cages or aquaria throughout the whole study period. A group of animals was slaughtered through exsanguination under diethyl ether inhalation of anesthesia in the period of 6 h, 1, 3, 7, 14, and 21 d after the administration. The blood samples were immediately collected into the heparinized tubes and was centrifuged at 1920 × g at 4 °C for 10 min to obtain the plasma. The tissues from the heart, liver, spleen, lung, kidney, craw (broilers), stomach, intestine, fat, skin, muscle, thymus, pancreas, bile, bladder, hair (scale for carp), genital gland, adrenal glands, swim bladder (carp), brain, lymph, and bursa (broilers) were carefully excised and collected. The tissues were thoroughly rinsed with the deionized water to remove the residuary blood, blotted to dryness, and finally to perform the homogenization. In order to avoid cross-contamination the dissecting instruments were washed during the tissue procurements. The blank tissues were collected in order to provide control matrices. The total radioactivity levels in each sample were determined through LSC. The samples extracted from the plasma, bile, and tissues of the liver, kidney, muscle, and fat/skin were analyzed through LC/MS-IT-TOF and v. ARC radiometric detection for metabolite profiling.
Measurements of the total radioactivity in each sample were conducted by Packard Tri-Carb 2900 TR liquid scintillation counter (PerkinElmer Life and Analytical Sciences). The detection time was 10 min for two cycles. The scintillation counter data were automatically corrected for counting efficiency by instrument-stored quench curve which was drawn with a series of sealed quenched […] standards. The actual radioactivity of each sample was calculated by subtracting the background value form the mean radioactivity in two blank samples. All the samples were analyzed in duplicate if the sample size allowed this. If the results were differed by more than 10% from the mean value, the samples were reanalyzed. The samples with LSC counts less than 2-fold of the level of the running background were considered to contain insufficient radioactivity for reliable quantification.
Aliquots of liquid samples (urine, plasma, bile and raised water, 200 μL) were mixed with 10 mL of Ultima Gold^TM scintillation fluid for the direct analysis by LSC. Aliquots of solid samples (feces and tissues, 200 mg) were digested overnight with 2 mL tissue solubilizer at 50 °C in a shaking water bath, followed by adding 200 μL of 0.1 mol/L EDTA-Na and 200 μL of 30% H2O2, and was bathed at 50 °C for 2 h to bleach. The obtained transparent liquid were mixed with 10 mL of scintillation fluid and finally were counted by LSC. The digestion efficiency was determined by using the blank samples spiked with ^3 H standard for digestion, and the measured radioactivity content in the digested samples were adjusted by using the digestion efficiency values.
The concentrations of ADP and/or its metabolites were analyzed by using the following equation: C = L/(2.22 × 10^9 × RM), where C is the concentration of ADP or/and its metabolites (mg/kg), L is the LSC count (dpm), R is the specific activity of the administered dose (0.1 Ci/g), and M is the weight or volume of samples (kg or L). The results are expressed as mean ± SD. The elimination kinetics of terminal phase for ADP and its metabolites were conducted by using the WinNonlin linear regression program (Pharsight corporation, Statistical consultants, Inc., Kentucky, USA).

[3H]c1c(Cc2cnc(N)nc2N)cc(OC)c(N(C)C)c1OC [^3H-ADP]
Ke of total residues (carp Bile): 0.38
Concentrations of total residues (carp Bile, 0.25 d after 5 mg/kg b. w. for 7 days): 334.6 ± 69.0 mg/kg and 334.60 ± 69.02 mg/kg
Concentrations of total residues (carp Bile, 1 d after 5 mg/kg b. w. for 7 days): 89.59 ± 3.87 mg/kg
Concentrations of total residues (carp Bile, 3 d after 5 mg/kg b. w. for 7 days): 24.33 ± 1.91 mg/kg
Concentrations of total residues (carp Bile, 7 d after 5 mg/kg b. w. for 7 days): 1.34 ± 0.29 mg/kg
Concentrations of total residues (carp Bile, 14 d after 5 mg/kg b. w. for 7 days): 0.13 ± 0.05 mg/kg
Concentrations of total residues (carp Bile, 21 d after 5 mg/kg b. w. for 7 days): 0.01 ± 0.00 mg/kg
Ke of total residues (carp Blood): 0.20
Concentrations of total residues (carp Blood, 0.25 d after 5 mg/kg b. w. for 7 days): 1.73 ± 0.18 mg/kg
Concentrations of total residues (carp Blood, 1 d after 5 mg/kg b. w. for 7 days): 1.06 ± 0.10 mg/kg
Concentrations of total residues (carp Blood, 3 d after 5 mg/kg b. w. for 7 days): 0.40 ± 0.08 mg/kg
Concentrations of total residues (carp Blood, 7 d after 5 mg/kg b. w. for 7 days): 0.19 ± 0.02 mg/kg
Concentrations of total residues (carp Blood, 14 d after 5 mg/kg b. w. for 7 days): 0.05 ± 0.01 mg/kg
Ke of total residues (carp Branchia): 0.23
Concentrations of total residues (carp Branchia, 0.25 d after 5 mg/kg b. w. for 7 days): 12.73 ± 1.93 mg/kg
Concentrations of total residues (carp Branchia, 1 d after 5 mg/kg b. w. for 7 days): 5.46 ± 0.84 mg/kg
Concentrations of total residues (carp Branchia, 3 d after 5 mg/kg b. w. for 7 days): 1.66 ± 0.08 mg/kg
Concentrations of total residues (carp Branchia, 7 d after 5 mg/kg b. w. for 7 days): 0.22 ± 0.04 mg/kg
Concentrations of total residues (carp Branchia, 14 d after 5 mg/kg b. w. for 7 days): 0.05 ± 0.00 mg/kg
Concentrations of total residues (carp Branchia, 21 d after 5 mg/kg b. w. for 7 days): 0.01 ± 0.00 mg/kg
Ke of total residues (carp Colla piscis): 0.24
Concentrations of total residues (carp Colla piscis, 0.25 d after 5 mg/kg b. w. for 7 days): 2.78 ± 0.76 mg/kg
Concentrations of total residues (carp Colla piscis, 1 d after 5 mg/kg b. w. for 7 days): 1.50 ± 0.22 mg/kg
Concentrations of total residues (carp Colla piscis, 3 d after 5 mg/kg b. w. for 7 days): 0.41 ± 0.04 mg/kg
Concentrations of total residues (carp Colla piscis, 7 d after 5 mg/kg b. w. for 7 days): 0.10 ± 0.02 mg/kg
Concentrations of total residues (carp Colla piscis, 14 d after 5 mg/kg b. w. for 7 days): 0.03 ± 0.01 mg/kg
Ke of total residues (carp Heart): 0.30
Concentrations of total residues (carp Heart, 0.25 d after 5 mg/kg b. w. for 7 days): 5.37 ± 0.50 mg/kg
Concentrations of total residues (carp Heart, 1 d after 5 mg/kg b. w. for 7 days): 2.58 ± 0.57 mg/kg
Concentrations of total residues (carp Heart, 3 d after 5 mg/kg b. w. for 7 days): 1.11 ± 0.08 mg/kg
Concentrations of total residues (carp Heart, 7 d after 5 mg/kg b. w. for 7 days): 0.34 ± 0.05 mg/kg
Concentrations of total residues (carp Heart, 14 d after 5 mg/kg b. w. for 7 days): 0.14 ± 0.02 mg/kg
Concentrations of total residues (carp Heart, 21 d after 5 mg/kg b. w. for 7 days): 0.01 ± 0.00 mg/kg
Ke of total residues (carp Intestine): 0.21
Concentrations of total residues (carp Intestine, 1 d after 5 mg/kg b. w. for 7 days): 5.35 ± 0.51 mg/kg
Concentrations of total residues (carp Intestine, 3 d after 5 mg/kg b. w. for 7 days): 1.85 ± 0.25 mg/kg
Concentrations of total residues (carp Intestine, 7 d after 5 mg/kg b. w. for 7 days): 0.42 ± 0.09 mg/kg
Concentrations of total residues (carp Intestine, 14 d after 5 mg/kg b. w. for 7 days): 0.16 ± 0.06 mg/kg
Ke of total residues (carp Kidney): 0.19
Concentrations of total residues (carp Kidney, 0.25 d after 5 mg/kg b. w. for 7 days): 47.64 ± 9.81 mg/kg
Concentrations of total residues (carp Kidney, 1 d after 5 mg/kg b. w. for 7 days): 8.30 ± 1.02 mg/kg
Concentrations of total residues (carp Kidney, 3 d after 5 mg/kg b. w. for 7 days): 3.83 ± 0.39 mg/kg
Concentrations of total residues (carp Kidney, 7 d after 5 mg/kg b. w. for 7 days): 1.57 ± 0.11 mg/kg
Concentrations of total residues (carp Kidney, 14 d after 5 mg/kg b. w. for 7 days): 0.72 ± 0.10 mg/kg
Concentrations of total residues (carp Kidney, 21 d after 5 mg/kg b. w. for 7 days): 0.10 ± 0.02 mg/kg
Ke of total residues (carp Liver): 0.10
Concentrations of total residues (carp Liver, 0.25 d after 5 mg/kg b. w. for 7 days): 15.59 ± 1.52 mg/kg
Concentrations of total residues (carp Liver, 3 d after 5 mg/kg b. w. for 7 days): 2.53 ± 0.21 mg/kg
Concentrations of total residues (carp Liver, 7 d after 5 mg/kg b. w. for 7 days): 0.40 ± 0.08 mg/kg
Concentrations of total residues (carp Liver, 14 d after 5 mg/kg b. w. for 7 days): 0.30 ± 0.05 mg/kg
Concentrations of total residues (carp Liver, 21 d after 5 mg/kg b. w. for 7 days): 0.09 ± 0.01 mg/kg
Ke of total residues (carp Muscle): 0.23
Concentrations of total residues (carp Muscle, 0.25 d after 5 mg/kg b. w. for 7 days): 2.26 ± 0.62 mg/kg
Concentrations of total residues (carp Muscle, 1 d after 5 mg/kg b. w. for 7 days): 1.96 ± 0.48 mg/kg
Concentrations of total residues (carp Muscle, 3 d after 5 mg/kg b. w. for 7 days): 0.96 ± 0.10 mg/kg
Concentrations of total residues (carp Muscle, 7 d after 5 mg/kg b. w. for 7 days): 0.43 ± 0.09 mg/kg
Concentrations of total residues (carp Muscle, 14 d after 5 mg/kg b. w. for 7 days): 0.08 ± 0.00 mg/kg
Ke of total residues (carp Roe): 0.16
Concentrations of total residues (carp Roe, 0.25 d after 5 mg/kg b. w. for 7 days): 4.74 ± 1.03 mg/kg
Concentrations of total residues (carp Roe, 1 d after 5 mg/kg b. w. for 7 days): 3.86 ± 0.76 mg/kg
Concentrations of total residues (carp Roe, 3 d after 5 mg/kg b. w. for 7 days): 2.24 ± 0.36 mg/kg
Concentrations of total residues (carp Roe, 7 d after 5 mg/kg b. w. for 7 days): 0.85 ± 0.40 mg/kg
Concentrations of total residues (carp Roe, 14 d after 5 mg/kg b. w. for 7 days): 0.47 ± 0.13 mg/kg
Concentrations of total residues (carp Roe, 21 d after 5 mg/kg b. w. for 7 days): 0.09 ± 0.01 mg/kg
Ke of total residues (carp Scales): 0.24
Concentrations of total residues (carp Scales, 0.25 d after 5 mg/kg b. w. for 7 days): 2.59 ± 0.32 mg/kg
Concentrations of total residues (carp Scales, 1 d after 5 mg/kg b. w. for 7 days): 2.01 ± 0.45 mg/kg
Concentrations of total residues (carp Scales, 3 d after 5 mg/kg b. w. for 7 days): 0.80 ± 0.04 mg/kg
Concentrations of total residues (carp Scales, 7 d after 5 mg/kg b. w. for 7 days): 0.29 ± 0.07 mg/kg
Concentrations of total residues (carp Scales, 14 d after 5 mg/kg b. w. for 7 days): 0.06 ± 0.01 mg/kg
Ke of total residues (carp Skin): 0.29
Concentrations of total residues (carp Skin, 0.25 d after 5 mg/kg b. w. for 7 days): 3.66 ± 0.62 mg/kg
Concentrations of total residues (carp Skin, 1 d after 5 mg/kg b. w. for 7 days): 2.82 ± 0.91 mg/kg
Concentrations of total residues (carp Skin, 3 d after 5 mg/kg b. w. for 7 days): 1.48 ± 0.16 mg/kg
Concentrations of total residues (carp Skin, 7 d after 5 mg/kg b. w. for 7 days): 0.87 ± 0.17 mg/kg
Concentrations of total residues (carp Skin, 14 d after 5 mg/kg b. w. for 7 days): 0.07 ± 0.01 mg/kg
Ke of total residues (carp Spleen): 0.23
Concentrations of total residues (carp Spleen, 0.25 d after 5 mg/kg b. w. for 7 days): 63.23 ± 2.89 mg/kg
Concentrations of total residues (carp Spleen, 1 d after 5 mg/kg b. w. for 7 days): 27.12 ± 4.89 mg/kg
Concentrations of total residues (carp Spleen, 3 d after 5 mg/kg b. w. for 7 days): 8.17 ± 0.59 mg/kg
Concentrations of total residues (carp Spleen, 7 d after 5 mg/kg b. w. for 7 days): 0.73 ± 0.17 mg/kg
Concentrations of total residues (carp Spleen, 14 d after 5 mg/kg b. w. for 7 days): 0.25 ± 0.05 mg/kg
Concentrations of total residues (carp Spleen, 21 d after 5 mg/kg b. w. for 7 days): 0.03 ± 0.00 mg/kg
